Data taken from article PMC9331314, “Synthesis and Antiviral Properties of Camphor-Derived Iminothiazolidine-4-Ones and 2,3-Dihydrothiazoles” (Molecules, 2022).
Like-named read-outs stand apart in the source and are kept apart here.

Key:
[1] = system: vaccinia virus (strain Copenhagen)
[2] = system: Marburg pseudovirus (GP MARV)
[3] = in vitro; details: African green monkey
[4] = in vitro; details: human
[5] = system: vaccinia virus (strain Copenhagen); experiment: microbe, parasite or virus in culture; details: Orthopoxvirus vaccinia, Vero, 96 h
[6] = system: Marburg pseudovirus (GP MARV); experiment: microbe, parasite or virus in culture; details: 24 h

| SMILES | SI (CC50/IC50) [1] | SI (CC50/IC50) [2] | CC50 [3] [µM] | CC50 [4] [µM] | IC50 [5] [µM] | IC50 [6] [µM] | IC50 [2] [µM] |
| --- | --- | --- | --- | --- | --- | --- | --- |
| C=CCNC(=S)N/N=C1\C[C@@H]2CC[C@@]1(C)C2(C)C [2′b, (E)-N-allyl-2-((1S,4S)-1,7,7-trimethylbicyclo[2.2.1]heptan-2-ylidene)hydrazinecarbothioamide] | 3 | 15 | 35 ± 4.6 | 56.5 ± 8.2 | 12 ± 2.9 | 3.8 ± 1.9 |  |
| CCNC(=S)N/N=C1\C[C@@H]2CC[C@@]1(C)C2(C)C [2′c, (E)-N-ethyl-2-((1S,4S)-1,7,7-trimethylbicyclo[2.2.1]heptan-2-ylidene)hydrazinecarbothioamide] | 3 | 16 | 45 ± 6.6 | 530 ± 35.4 | 14 ± 2.6 | 9.1 ± 3.9 |  |
| CC1(C)[C@H]2CC[C@]1(C)/C(=N\N=C1\SCC(=O)N1c1ccccc1)C2 [3′a, (Z)-3-phenyl-2-((E)-((1S,4S)-1,7,7-trimethylbicyclo[2.2.1]heptan-2-ylidene)hydrazono)thiazolidin-4-one] | 4 |  | 290 ± 36.9 |  | 75 ± 13.7 |  |  |
| C=CCN1C(=O)CS/C1=N/N=C1/C[C@@H]2CC[C@@]1(C)C2(C)C [3′b, (Z)-3-allyl-2-((E)-((1S,4S)-1,7,7-trimethylbicyclo[2.2.1]heptan-2-ylidene)hydrazono)thiazolidin-4-one] | 2 | 3 | 160 ± 20.8 | 121 ± 6.5 | 66 ± 12.9 | 45.8 ± 6.5 |  |
| CCN1C(=O)CS/C1=N/N=C1/C[C@@H]2CC[C@@]1(C)C2(C)C [3′c, (Z)-3-ethyl-2-((E)-((1S,4S)-1,7,7-trimethylbicyclo[2.2.1]heptan-2-ylidene)hydrazono)thiazolidin-4-one] | 4 | 3 | 220 ± 28.6 | 170 ± 40.9 | 64 ± 12.3 | 68.2 ± 20.4 |  |
| CN1C(=O)CS/C1=N/N=C1/C[C@@H]2CC[C@@]1(C)C2(C)C [3′d, (Z)-3-methyl-2-((E)-((1S,4S)-1,7,7-trimethylbicyclo[2.2.1]heptan-2-ylidene)hydrazono)thiazolidin-4-one] |  | 6 | 250 ± 31.4 | 182 ± 14.3 |  | 28.6 ± 10.7 |  |
| Nc1ccn(C[C@@H](CO)OCP(=O)(O)O)c(=O)n1 [Cidofovir, reference compound] | 12 |  | 475 ± 74.9 |  | 40.1 ± 2.8 |  |  |
| C=CCN1C(=O)CS/C1=N/N=C1/C[C@H]2CC[C@]1(C)C2(C)C [Compound 3b, (Z)-3-allyl-2-((E)-((1R,4R)-1,7,7-trimethylbicyclo[2.2.1]heptan-2-ylidene)hydrazono)thiazolidin-4-one] |  | 5 | 99 ± 11.8 | 108 ± 6.5 | 72 ± 12.2 | 22.9 ± 0.7 |  |
| CCN1C(=O)CS/C1=N/N=C1/C[C@H]2CC[C@]1(C)C2(C)C [Compound 3c, (Z)-3-ethyl-2-((E)-((1R,4R)-1,7,7-trimethylbicyclo[2.2.1]heptan-2-ylidene)hydrazono)thiazolidin-4-one] | 4 | 2 | 87 ± 10.1 | 54.1 ± 9.2 | 24 ± 3.9 | 30.7 ± 6.8 |  |
| CN1C(=O)CS/C1=N/N=C1/C[C@H]2CC[C@]1(C)C2(C)C [Compound 3d, (Z)-3-methyl-2-((E)-((1R,4R)-1,7,7-trimethylbicyclo[2.2.1]heptan-2-ylidene)hydrazono)thiazolidin-4-one] | 3 |  | 310 ± 41.3 |  | 100 ± 17.6 |  |  |
| CC1(C)S/C(=N/N=C2/C[C@H]3CC[C@]2(C)C3(C)C)N(c2ccccc2)C1=O [Compound 4a, (Z)-5,5-dimethyl-3-phenyl-2-((E)-((1R,4R)-1,7,7-trimethylbicyclo[2.2.1]heptan-2-ylidene)hydrazono)thiazolidin-4-one] | 8 | 3 | 270 ± 35.2 | 325 ± 36.1 | 32.5 ± 2.8 | 94.7 ± 8.1 |  |
| CCN1C(=O)C(C)(C)SC1=NN=C1CC2CCC1(C)C2(C)C [Compound 4c, ((Z)-3-ethyl-5,5-dimethyl-2-((E)-((1R,4R)-1,7,7-trimethylbicyclo[2.2.1]heptan-2-ylidene)hydrazono)thiazolidin-4-one] |  | 5 | 290 ± 34.9 | 778 ± 82.8 |  | 171 ± 46.7 |  |
| C=CCn1c(-c2ccc(Cl)cc2)cs/c1=N/N=C1\C[C@H]2CC[C@]1(C)C2(C)C [Compound 5b, (E)-3-allyl-4-(4-chlorophenyl)-2-((E)-((1R,4R)-1,7,7-trimethylbicyclo[2.2.1]heptan-2-ylidene)hydrazono)-2,3-dihydrothiazole] | 8 | 3 | 19 ± 2.8 | 80 ± 20 | 2.5 ± 0.3 | 30 ± 10 |  |
| CCn1c(-c2ccc(Cl)cc2)cs/c1=N/N=C1\C[C@H]2CC[C@]1(C)C2(C)C [Compound 5c, (E)-4-(4-chlorophenyl)-3-ethyl-2-((E)-((1R,4R)-1,7,7-trimethylbicyclo[2.2.1]heptan-2-ylidene)hydrazono)-2,3-dihydrothiazole] | 6 | 2 | 70 ± 8.9 | 51.6 ± 15.5 | 12 ± 1.5 | 25.8 ± 5.2 |  |
| Cc1ccc(-c2cs/c(=N/N=C3\C[C@H]4CC[C@]3(C)C4(C)C)n2-c2ccccc2)cc1 [Compound 6a, (E)-3-phenyl-4-p-tolyl-2-((E)-((1R,4R)-1,7,7-trimethylbicyclo[2.2.1]heptan-2-ylidene)hydrazono)-2,3-dihydrothiazole] |  | 2 | 98 ± 11.6 | 135 ± 19.2 |  | 60.2 ± 14.4 |  |
| C=CCn1c(-c2ccc(C)cc2)cs/c1=N/N=C1\C[C@H]2CC[C@]1(C)C2(C)C [Compound 6b, (E)-3-allyl-4-p-tolyl-2-((E)-((1R,4R)-1,7,7-trimethylbicyclo[2.2.1]heptan-2-ylidene)hydrazono)-2,3-dihydrothiazole] | 3 | 7 | 12 ± 2.1 | 39.5 ± 4.8 | 4 ± 0.6 | 5.3 ± 2.6 |  |
| CCn1c(-c2ccc(C)cc2)cs/c1=N/N=C1\C[C@H]2CC[C@]1(C)C2(C)C [Compound 6c, (E)-3-ethyl-4-p-tolyl-2-((E)-((1R,4R)-1,7,7-trimethylbicyclo[2.2.1]heptan-2-ylidene)hydrazono)-2,3-dihydrothiazole] |  |  | 15 ± 2.9 |  |  |  |  |
| Cc1ccc(-c2cs/c(=N/N=C3\C[C@H]4CC[C@]3(C)C4(C)C)n2C)cc1 [Compound 6d, (E)-3-methyl-4-p-tolyl-2-((E)-((1R,4R)-1,7,7-trimethylbicyclo[2.2.1]heptan-2-ylidene)hydrazono)-2,3-dihydrothiazole] | 3 | 3 | 17 ± 3.1 | 79.2 ± 8.5 | 5.1 ± 0.7 | 28.3 ± 8.5 |  |
| COc1ccc(-c2cs/c(=N/N=C3\C[C@H]4CC[C@]3(C)C4(C)C)n2-c2ccccc2)cc1 [Compound 7a, (E)-4-(4-methoxyphenyl)-3-phenyl-2-((E)-((1R,4R)-1,7,7-trimethylbicyclo[2.2.1]heptan-2-ylidene)hydrazono)-2,3-dihydrothiazole] |  | 8 | 232 ± 29.6 | 973 ± 61.6 |  | 127 ± 23.2 |  |
| C=CCn1c(-c2ccc(OC)cc2)cs/c1=N/N=C1\C[C@H]2CC[C@]1(C)C2(C)C [Compound 7b, (E)-3-allyl-4-(4-methoxyphenyl)-2-((E)-((1R,4R)-1,7,7-trimethylbicyclo[2.2.1]heptan-2-ylidene)hydrazono)-2,3-dihydrothiazole] |  | 3 | 200 ± 23.1 | 37.9 ± 8.3 |  | 13.9 ± 2.5 |  |
| CCn1c(-c2ccc(OC)cc2)cs/c1=N/N=C1\C[C@H]2CC[C@]1(C)C2(C)C [Compound 7c, (E)-3-ethyl-4-(4-methoxyphenyl)-2-((E)-((1R,4R)-1,7,7-trimethylbicyclo[2.2.1]heptan-2-ylidene)hydrazono)-2,3-dihydrothiazole] |  | 9 |  | 117 ± 10.4 |  | 13 ± 5.2 |  |
| COc1ccc(-c2cs/c(=N/N=C3\C[C@H]4CC[C@]3(C)C4(C)C)n2C)cc1 [Compound 7d, (E)-4-(4-methoxyphenyl)-3-methyl-2-((E)-((1R,4R)-1,7,7-trimethylbicyclo[2.2.1]heptan-2-ylidene)hydrazono)-2,3-dihydrothiazole] |  | 4 |  | 97.4 ± 21.6 |  |  | 27.1 ± 8.1 |
| CC1(C)[C@@H]2CC[C@@]1(C)/C(=N/N=c1/scc(-c3ccccc3)n1-c1ccccc1)C2 [Compound 8a, (E)-3,4-diphenyl-2-((E)-((1R,4R)-1,7,7-trimethylbicyclo[2.2.1]heptan-2-ylidene)hydrazono)-2,3-dihydrothiazole] | 7 | 3 | 122 ± 14.7 | 89.6 ± 19.9 | 18 ± 1.9 | 29.9 ± 5 |  |
| C=CCn1c(-c2ccccc2)cs/c1=N/N=C1\C[C@H]2CC[C@]1(C)C2(C)C [Compound 8b, (E)-3-allyl-4-phenyl-2-((E)-((1R,4R)-1,7,7-trimethylbicyclo[2.2.1]heptan-2-ylidene)hydrazono)-2,3-dihydrothiazole] | 6 | <2 | 17 ± 2.9 | < 41 | 3 ± 0.4 | 19.2 ± 2.7 |  |
| CCn1c(-c2ccccc2)cs/c1=N/N=C1\C[C@H]2CC[C@]1(C)C2(C)C [Compound 8c, (E)-3-ethyl-4-phenyl-2-((E)-((1R,4R)-1,7,7-trimethylbicyclo[2.2.1]heptan-2-ylidene)hydrazono)-2,3-dihydrothiazole] | 6 | <2 | 17 ± 3.3 | < 42.4 | 3 ± 0.5 | 28.3 ± 2.8 |  |
| CN[C@H]1CC[C@@H](c2ccc(Cl)c(Cl)c2)c2ccccc21 [Sertraline, reference compound] |  |  |  | 408 ± 35.9 |  |  |  |
